From patent US20100222394A1, “METHOD FOR PRODUCING PYRAZOL-3-YL-BENZAMIDE DERIVATIVE” (priority 2007, published 2010)

Key:
[1] = Thermogravimetric analysis; format: physicochemical; conditions: flow of nitrogen, heating rate 10° C./min
Procedure: (§1) A Perkin Elmer model TG 7 or equivalent instrument is used. Experiments are performed under a flow of nitrogen and using a heating rate 10° C./min to a maximum temperature of 500° C. Approximately 10 mg of sample is added to the platinum pan. Weight/temperature data are collected automatically by the instrument. Compound 9 doesn't show obvious weight loss until 180° C.

[2] = Solid-state properties of the crystal compared to the amorphous form (from thermogravimetric analysis and X-ray powder diffraction); format: physicochemical; conditions: compared to amorphous form of the free benzamide of patent document 1
Procedure: as §1
Obtain the X-ray diffraction pattern of a finely-powdered, randomly orientated sample, using copper K alpha X-radiation from 4 to 40 theta.
Bruker powder X-ray diffractometer D8ADVANCE (at 2 kW) (bull car ray X id bull car ray X id Co., Ltd.) is used, and a powder X-ray diffraction experiment was done.

[3] = target: recombinant human liver GK (Homo sapiens, UniProt P35557); assay: biochemical; set-up: Emax: dose or concentration left out as unconfirmed
recombinant human liver GK, sequence (P35557 1-466 isoform P35557-2): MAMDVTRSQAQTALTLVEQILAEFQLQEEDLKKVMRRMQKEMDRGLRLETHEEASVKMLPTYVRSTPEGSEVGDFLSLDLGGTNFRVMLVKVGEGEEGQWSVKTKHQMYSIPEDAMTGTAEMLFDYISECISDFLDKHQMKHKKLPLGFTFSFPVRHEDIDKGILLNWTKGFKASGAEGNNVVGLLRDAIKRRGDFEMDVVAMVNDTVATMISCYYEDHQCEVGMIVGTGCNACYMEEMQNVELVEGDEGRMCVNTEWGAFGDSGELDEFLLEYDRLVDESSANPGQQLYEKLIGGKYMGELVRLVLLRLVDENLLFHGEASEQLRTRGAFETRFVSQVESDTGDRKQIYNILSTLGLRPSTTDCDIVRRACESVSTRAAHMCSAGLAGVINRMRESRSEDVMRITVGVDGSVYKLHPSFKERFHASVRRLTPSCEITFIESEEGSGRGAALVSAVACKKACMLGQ
Text: The glucokinase activity may be determined not by directly measuring glucose-6-phosphate but by measuring the level of Thio-NADH, which is produced when a reporter enzyme, glucose-6-phosphate dehydrogenase produces phosphogluconolactone from glucose-6-phosphate, and based on the level, the degree of glucokinase activity of the compound tested may be determined.
In this assay, used was a recombinant human liver GK, which was expressed by E. coli as a FLAG fusion protein therein and was purified by […] M2 AFFINITY GEL (Sigma).
69 μl of an assay buffer (25 mM Hepes Buffer/pH=7.2, 2 mM MgCl2, 1 mM ATP, 0.5 mM TNAD, 1 mM dithiothreitol) was put into the plate, and 1 μl of a DMSO solution of the compound or DMSO alone as a control was added thereto. Next, 20 μl of an enzyme mixture (FLAG-GK, 20 U/ml G6PDH) cooled in ice was added to it, and 10 μl of a substrate, 25 mM glucose was added to it, and the reaction was initiated (final glucose concentration=2.5 mM).
The OD level of the DMSO control was set as 100%; and the OD level of the test compound at different concentrations was determined. From the OD level at each concentration, Emax (%) and EC50 (μM) were computed and used as the index of the GK-activating potency of the compound.

**Q.** With `CCS(=O)(=O)c1ccc(Oc2cc(O[C@@H](C)CO)cc(C(=O)Nc3ccn(C)n3)c2)cn1.CS(=O)(=O)O` [3-(6-ethanesulfonylpyridin-3-yloxy)-5-((1S)-2-hydroxy-1-methyl-ethoxy)-N-(1-methyl-1H-pyrazol-3-yl)benzamide methanesulfonate] as the compound, how does the “temperature until which no obvious weight loss is shown” value [1] read?
**A.** The value was ≥ 180 °C.

**Q.** What about the hygroscopicity [2] of the same compound?
**A.** Its hygroscopicity is “less hygroscopicity”.

**Q.** What about the physical stability [2] of the same compound?
**A.** Its physical stability is “stability physically”.

**Q.** What about the EC50 [3] of the same compound?
**A.** The EC50 was 30 nM.

**Q.** What about the Emax [3] of the same compound?
**A.** Its Emax is 828%.
